# Test results as given in patent US9529005B2, “Modulating bacterial MAM polypeptides in pathogenic disease” (priority 2011, dated 2016).
# B1: mce 5: GST-tagged individual mce domain 5 of V. parahaemolyticus MAM7 (SEQ ID NO: 9) (protein, listed as Vibrio parahaemolyticus)
# chain: GSKTLMLFASELPPISKGSPLLYRNLPVGNVSDFHLVDGGVLIKATIENRFAYLVTPQTVFWNRSGIEIDASLSGVSVKAHPLKSLIEG
# modifications: GST tag
# B2: mce 2: GST-tagged individual mce domain 2 of V. parahaemolyticus MAM7 (SEQ ID NO: 6) (protein, listed as Vibrio parahaemolyticus)
# chain: QGLNIKLKSRDLGGVSIGSQIVYKKIPIGAVYSYQLDEDAKSITIQANIQEQYRHIINDRSRFWNVSGIGASIGFEGVDVRLESMSALLGG
# modifications: GST tag
# B3: mce 3: GST-tagged individual mce domain 3 of V. parahaemolyticus MAM7 (SEQ ID NO: 7) (protein, listed as Vibrio parahaemolyticus)
# chain: RGIAIKIALPDDNKVSSEGAPIMYRGIEIGQVTDLSLSEGREVILASAAIQPAFSDMLTTGTRFVLEEAKVSLSGVENIANLVRGNFLTIVPG
# modifications: GST tag
# B4: mce 4: GST-tagged individual mce domain 4 of V. parahaemolyticus MAM7 (SEQ ID NO: 8) (protein, listed as Vibrio parahaemolyticus)
# chain: SIAIRLISDNSFGLDSGANVLYKGIVVGSIINVGLVDEKKQTKHEVFMDVLIDHEYKHLIKSNNRFYVTGSASAELTESGLSVTVP
# modifications: GST tag
# B5: mce 1: GST-tagged individual mce domain 1 of V. parahaemolyticus MAM7 (SEQ ID NO: 5) (protein, listed as Vibrio parahaemolyticus)
# chain: AGQRVQIYFSDAAGLVAGRTTIRYQGLEVGMVRDINLSEDLGSIYVDADIYPEATKLLNDKTRFWLVKPTASLTGVSGLDALVSGNYISIQPG
# modifications: GST tag
# Legend:
# Acinetobacter baumannii = experiment: Antimicrobial susceptibility testing (MIC), BD Phoenix Automated Microbiology System; format: cell-based; for interpretation of the result: key: R, resistant; I, intermediate; S, susceptible; R*: *As a rule, when ESBL is detected, an interpretation of susceptible or intermediate for penicillins, cephalosporins and aztreonam is reported as resistant
# Escherichia coli = experiment: as above; format: cell-based; for interpretation of the result: key: R, resistant; I, intermediate; S, susceptible; R*: *As a rule, when ESBL is detected, an interpretation of susceptible or intermediate for penicillins, cephalosporins and aztreonam is reported as resistant
# Klebsiella ssp. = experiment: as above; format: cell-based; for interpretation of the result: key: R, resistant; I, intermediate; S, susceptible; R*: *As a rule, when ESBL is detected, an interpretation of susceptible or intermediate for penicillins, cephalosporins and aztreonam is reported as resistant
# Pseudomonas aeruginosa = experiment: as above; format: cell-based; for interpretation of the result: key: R, resistant; I, intermediate; S, susceptible; R*: *As a rule, when ESBL is detected, an interpretation of susceptible or intermediate for penicillins, cephalosporins and aztreonam is reported as resistant
# [1] = Liposome association assay; format: binding; conditions: individual GST-mce domains, 1-80 mol % PA, densitometry; relative to high binding mce domains
# Procedure: PBS-buffered liposomes were prepared from 1,2-Dioleoyl-sn-glycero-3-phosphocholine (PC) or mixtures of PC and 1,2-dioleoyl-sn-glycero-3-phosphate (PA) (both Avanti Polar Lipids Inc.) as described previously (Selyunin et al., 2011), but using PBS as buffer. 300 μg liposomes were incubated with 100 μg MBP-MAM protein in PBS for one hour at 22° C. Mixtures were centrifuged at 100 000×g, 4° C. for one hour and both pellet and supernatant fractions were separated by SDS-PAGE and proteins were detected by Coomassie staining.
# Binding of GST and GST-mce constructs to liposomes were carried out as described in the literature (Krachler et al., 2011). 300 μg liposomes containing PC alone or 1-80 mol % PA were incubated with 100 μg GST and GST-mce proteins in PBS for one hour at 22° C. Mixtures were centrifuged at 100,000×g, 4° C. for one hour and both pellet and supernatant fractions were separated by SDS-PAGE and proteins detected by Coomassie staining Band intensities were determined using the gel analysis software UN-SCAN-IT (Silk Scientific Inc.) and intensities of pellet samples (% bound) were expressed as fraction of total intensities (supernatant and pellet samples combined).
# [2] = Pull-down of liposomes (50 mol % PA, 50 mol % PC) on immobilized GST-mce domains; format: binding; conditions: 50 mol % PA and 50 mol % PC, molybdophosphoric acid assay
# Procedure: Liposomes in load, flowthrough and eluate fractions were quantified using the method of Worth an Wright (1977). Briefly, samples were extracted with a mixture of chloroform and methanol, centrifuged and molybdophosphoric acid (Sigma) was added to the organic phase. Samples were centrifuged and the aqueous phase removed. Metol and sodium bisulfate were added to reduce the organic phase and the aqueous phase was removed again following centrifugation. The amount of phospholipid was determined by measuring absorbance at 680 nm and expressed as fraction of the amount detected in loaded fractions.
# Although the inventors had previously shown that MAM1 is sufficient to bind to phosphatidic acid, it was unclear how the other mce domains contributed to phosphatidic acid binding in the absence of fibronectin. The inventors tested all seven individual mce domains (mce1-mce7) for phosphatidic acid binding using liposome association assays. Proteins were incubated with liposomes containing a mixture of PC and increasing amounts (1-80 mol %) of PA, followed by separation of liposome-bound and un-bound fractions by ultracentrifugation. All fractions were analyzed by SDS-PAGE (data not shown) followed by densitometry (FIG. 18A). […] When the inventors analyzed the mce domains of MAM7 for overall charge, they found only minor differences between individual domains. When they looked at charge distribution, however, the inventors observed that several basic residues that are otherwise well conserved between individual domains are mutated in mce 6. These include two residues which are lysines in mce 2, the strongest binding mce domain, but a serine and glutamine in mce 6, respectively, and a well conserved arginine which is replaced by a histidine in mce 6 (FIG. 18D). […]. (FIG. 18B and data not shown). […] GST-mce proteins were immobilized and incubated with liposomes. Bound liposomes were quantified using a molybdophosphoric acid assay. […]
# [3] = Acinetobacter baumannii isolate 1
# [4] = Acinetobacter baumannii isolate 2
# [5] = Acinetobacter baumannii isolate 3
# [6] = Acinetobacter baumannii isolate 4
# [7] = Acinetobacter baumannii isolate 5
# [8] = Pseudomonas aeruginosa isolate 1
# [9] = Pseudomonas aeruginosa isolate 2
# [10] = Pseudomonas aeruginosa isolate 3
# [11] = Pseudomonas aeruginosa isolate 4
# [12] = Pseudomonas aeruginosa isolate 5
molecule,measurement,setting,value
Trimethoprim-Sulfamethoxazole [TmSm.],interpretation of the result,Acinetobacter baumannii; [3],R
same,minimal inhibiting concentration,Acinetobacter baumannii; [3],2/38
same,interpretation of the result,Acinetobacter baumannii; [4],R
same,minimal inhibiting concentration,Acinetobacter baumannii; [4],2/38
same,interpretation of the result,Acinetobacter baumannii; [5],R
same,minimal inhibiting concentration,Acinetobacter baumannii; [5],2/38
same,interpretation of the result,Acinetobacter baumannii; [6],R
same,minimal inhibiting concentration,Acinetobacter baumannii; [6],2/38
same,interpretation of the result,Acinetobacter baumannii; [7],R
same,minimal inhibiting concentration,Acinetobacter baumannii; [7],2/38
same,interpretation of the result,Escherichia coli; Escherichia coli isolate 1,R
same,minimal inhibiting concentration,Escherichia coli; Escherichia coli isolate 1,2/38
same,interpretation of the result,Escherichia coli; Escherichia coli isolate 2,R
same,minimal inhibiting concentration,Escherichia coli; Escherichia coli isolate 2,2/38
same,interpretation of the result,Escherichia coli; Escherichia coli isolate 3,R
same,minimal inhibiting concentration,Escherichia coli; Escherichia coli isolate 3,2/38
same,interpretation of the result,Escherichia coli; Escherichia coli isolate 4,R
same,minimal inhibiting concentration,Escherichia coli; Escherichia coli isolate 4,2/38
same,interpretation of the result,Escherichia coli; Escherichia coli isolate 5,R
same,minimal inhibiting concentration,Escherichia coli; Escherichia coli isolate 5,2/38
same,interpretation of the result,Klebsiella ssp.; Klebsiella ssp. isolate 1,R
same,minimal inhibiting concentration,Klebsiella ssp.; Klebsiella ssp. isolate 1,2/38
same,interpretation of the result,Klebsiella ssp.; Klebsiella ssp. isolate 2,S
same,interpretation of the result,Klebsiella ssp.; Klebsiella ssp. isolate 3,S
same,interpretation of the result,Klebsiella ssp.; Klebsiella ssp. isolate 4,S
same,interpretation of the result,Klebsiella ssp.; Klebsiella ssp. isolate 5,R
same,minimal inhibiting concentration,Klebsiella ssp.; Klebsiella ssp. isolate 5,2/38
same,interpretation of the result,Pseudomonas aeruginosa; [8],R
same,minimal inhibiting concentration,Pseudomonas aeruginosa; [8],2/38
same,interpretation of the result,Pseudomonas aeruginosa; [9],R
same,minimal inhibiting concentration,Pseudomonas aeruginosa; [9],2/38
same,interpretation of the result,Pseudomonas aeruginosa; [10],R
same,minimal inhibiting concentration,Pseudomonas aeruginosa; [10],2/38
same,interpretation of the result,Pseudomonas aeruginosa; [11],R
same,minimal inhibiting concentration,Pseudomonas aeruginosa; [11],2/38
same,interpretation of the result,Pseudomonas aeruginosa; [12],R
same,minimal inhibiting concentration,Pseudomonas aeruginosa; [12],2/38
B1,decrease of binding to PA-containing liposomes (apparent affinity),[1],~6 fold
same,binding of liposomes to immobilized GST-mce proteins,[2],weaker binding
B2,decrease of binding to PA-containing liposomes (apparent affinity),[1],bound equally well
same,binding of liposomes to immobilized GST-mce proteins,[2],strong binding
B3,decrease of binding to PA-containing liposomes (apparent affinity),[1],bound equally well
same,binding of liposomes to immobilized GST-mce proteins,[2],strong binding
B4,decrease of binding to PA-containing liposomes (apparent affinity),[1],bound equally well
same,binding of liposomes to immobilized GST-mce proteins,[2],strong binding
B5,decrease of binding to PA-containing liposomes (apparent affinity),[1],bound equally well
same,binding of liposomes to immobilized GST-mce proteins,[2],strong binding
